Source: publication PMC2941613 (Indian Journal of Pharmacology, 2010)

Tests used:
[1] = Plasma levels of active GLP-1 and insulin (unpublished observations); assay type: in vivo
[2] = tested on: ob/ob mice; conditions: 10 mg/kg p.o.
Procedure: The DPP-IV inhibitors were administered to overnight fasted ob/ob mice for the above stated period, followed by oral glucose challenge (2 g/kg). Blood samples collected at 0, 15, 30, 60, and 120 min after glucose load were processed as described earlier and blood glucose concentrations measured using Biochemical AutoAnalyzer, Dimension AR (Dade Behring, USA). AUC0-120 min were calculated and the percent glucose excursion was estimated at different duration of treatment compared to vehicle.

SMILES | Augmentation of plasma active GLP-1 [1] | Augmentation of plasma insulin [1] | Glucose lowering (glucose excursion, AUC0-120 min vs vehicle) at 8 h ([2]; OGTT 2 g/kg 8 h after dosing) | Reduction in AUCGlucose at 12 h ([2]; OGTT 2 g/kg 12 h after dosing) [%]
N[C@@H](CC(=O)N1CCn2c(nnc2C(F)(F)F)C1)Cc1cc(F)c(F)cc1F [sitagliptin] | twofold | twofold | ~ 35% | -23
N#C[C@@H]1CCCN1C(=O)CNC12CC3CC(CC(O)(C3)C1)C2 [vildagliptin] | twofold | twofold | – | –
